Data published in PubChem BioAssay AID248 (DTP/NCI, 2004).
Inconclusive results and toxic doses are left out. Cut-off read from the data, not from the text of the source: active = T/C of 150% or more; inactive = T/C below 125%.

Test system: L1210 leukemia ip in BDF1 mice, survival T/C
Assay: NCI In Vivo Anticancer Drug Screen. Data for tumor model L1210 Leukemia (intraperitoneal) in B6D2F1 (BDF1) mice
Conditions: endpoint: mean survival time, higher = longer survival
Method in brief: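 Survival endpoint. Drug-treated group vs vehicle group, expressed as T divided by C. Tumor passaged by transplantation.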

[1] = dose: 100.0 mg/kg/injection, schedule: Q04DX003 (ip), vehicle: Klucel (hydroxypropylcellulose) (HPC)
[2] = dose: 200.0 mg/kg/injection, schedule: Q04DX003 (ip), vehicle: Klucel (hydroxypropylcellulose) (HPC)
[3] = dose: 400.0 mg/kg/injection, schedule: Q04DX003 (ip), vehicle: Klucel (hydroxypropylcellulose) (HPC)
[4] = dose: 100.0 mg/kg/injection, schedule: Q01DX009 (ip), vehicle: Klucel (hydroxypropylcellulose) (HPC)
[5] = dose: 200.0 mg/kg/injection, schedule: Q01DX009 (ip), vehicle: Klucel (hydroxypropylcellulose) (HPC)
[6] = dose: 100.0 mg/kg/injection, schedule: Q04DX003 (ip), vehicle: saline with Tween-80
[7] = dose: 200.0 mg/kg/injection, schedule: Q04DX003 (ip), vehicle: saline with Tween-80
[8] = dose: 400.0 mg/kg/injection, schedule: Q04DX003 (ip), vehicle: saline with Tween-80
[9] = dose: 25.0 mg/kg/injection, schedule: Q04DX002 (ip), vehicle: saline with Tween-80
[10] = dose: 50.0 mg/kg/injection, schedule: Q04DX002 (ip), vehicle: saline with Tween-80
[11] = dose: 100.0 mg/kg/injection, schedule: Q01DX001 (ip), vehicle: saline with Tween-80
[12] = dose: 200.0 mg/kg/injection, schedule: Q01DX001 (ip), vehicle: saline with Tween-80
[13] = dose: 400.0 mg/kg/injection, schedule: Q01DX001 (ip), vehicle: saline with Tween-80

Measured: T/C

CCCCCCCCCCCCCCCCNc1cc(C)cc(C)c1
inactive: [1] 96 % of control | [2] 95 % of control | [3] 101 % of control

CC(C)(C)c1cc(C#N)cc(C(C)(C)C)c1O
inactive: dose: 50.0 mg/kg/injection, schedule: Q01DX009 (ip), vehicle: Klucel (hydroxypropylcellulose) (HPC) 96 % of control | [4] 103 % of control | [5] 96 % of control

CC1=NCCC[N-]CC[N-]CCCN=C1C.[Ni+2].[O-][Cl+3]([O-])([O-])O
inactive: dose: 100.0 mg/kg/injection, schedule: Q04DX002 (ip), vehicle: saline 94 % of control | dose: 200.0 mg/kg/injection, schedule: Q04DX002 (ip), vehicle: saline 94 % of control | dose: 400.0 mg/kg/injection, schedule: Q04DX002 (ip), vehicle: saline 98 % of control

CSc1ccc(NC(=O)Nc2ccccc2C(F)(F)F)cc1
inactive: dose: 100.0 mg/kg/injection, schedule: Q01DX009 (ip), vehicle: other 96 % of control | dose: 200.0 mg/kg/injection, schedule: Q01DX009 (ip), vehicle: other 96 % of control | dose: 400.0 mg/kg/injection, schedule: Q01DX009 (ip), vehicle: other 95 % of control

CCOC(=O)Nc1cccc(OC(=O)NC)c1
inactive: [6] 100 % of control | [7] 107 % of control | [8] 89 % of control

CCCCCCCCCCCCCCCC(=O)Nc1ccc(C(=O)C[n+]2ccc3c(NC(=O)CCC(=O)OC)cccc3c2)cc1
inactive: dose: 75.0 mg/kg/injection, schedule: Q01DX001 (ip), vehicle: other 86 % of control | dose: 150.0 mg/kg/injection, schedule: Q01DX001 (ip), vehicle: other 95 % of control

O=C(NNC(=O)OCC(Cl)(Cl)Cl)OCC(Cl)(Cl)Cl
inactive: [9] 90 % of control | [10] 87 % of control

O=S(=O)(F)c1cc(Cl)ccc1CBr
inactive: [9] 96 % of control | [10] 100 % of control | dose: 100.0 mg/kg/injection, schedule: Q04DX002 (ip), vehicle: saline with Tween-80 93 % of control | dose: 200.0 mg/kg/injection, schedule: Q04DX002 (ip), vehicle: saline with Tween-80 104 % of control | dose: 400.0 mg/kg/injection, schedule: Q04DX002 (ip), vehicle: saline with Tween-80 101 % of control

O=C(O)CSC(=S)N1CCOCC1
inactive: [11] 91 % of control | [12] 88 % of control | [13] 94 % of control

COc1cc(OC)c(C(=O)CCl)c(O)c1Cl
inactive: [6] 99 % of control | [7] 104 % of control | [8] 92 % of control

CCCC(O)S(=O)(=O)O (stereo not given)
inactive: dose: 50.0 mg/kg/injection, schedule: Q01DX009 (ip), vehicle: saline 103 % of control | dose: 100.0 mg/kg/injection, schedule: Q01DX009 (ip), vehicle: saline 94 % of control | dose: 100.0 mg/kg/injection, schedule: Q04DX003 (ip), vehicle: acetone 102 % of control | dose: 200.0 mg/kg/injection, schedule: Q01DX009 (ip), vehicle: saline 97 % of control | dose: 200.0 mg/kg/injection, schedule: Q04DX003 (ip), vehicle: acetone 99 % of control | dose: 400.0 mg/kg/injection, schedule: Q04DX003 (ip), vehicle: acetone 93 % of control

COC(=O)C1C2CC(Br)C(Br)CC21 (stereo not given)
inactive: [6] 94 % of control | [7] 94 % of control | [8] 94 % of control

CCN(CC)C(=O)Oc1cccc(NC(=O)OC)c1
inactive: [11] 94 % of control | [12] 94 % of control | [13] 100 % of control

c1ccc(NNC(c2ccccc2)(c2ccccc2)c2ccccc2)cc1
inactive: [4] 101 % of control | [1] 101 % of control | [5] 98 % of control | [2] 95 % of control | dose: 400.0 mg/kg/injection, schedule: Q01DX009 (ip), vehicle: Klucel (hydroxypropylcellulose) (HPC) 92 % of control | [3] 95 % of control

CCCCN(CCCC)CCSc1c(Cl)c(Cl)c(Cl)c(Cl)c1Cl
inactive: dose: 320.0 mg/kg/injection, schedule: Q01DX Z (ip), vehicle: saline 99 % of control | dose: 480.0 mg/kg/injection, schedule: Q01DX Z (ip), vehicle: saline 90 % of control
